We go through 30 compounds from patent US8592456B2 (4SC Discovery GmbH, priority 2011, dated 2013).

In this test the test system is PBMC (T cell proliferation). The test can be described thus: T cell proliferation assay, PHA-stimulated human PBMC (BrdU ELISA). In kind it is cell-based. As to conditions: human PBMC, 2 μg/ml PHA, 48 hours, BrdU; read-out: D: IC50 (Tcell proliferation). The protocol:
Cell proliferation was analysed using the BrdU based cell proliferation ELISA from Roche (Mannheim, Germany) according to the manufacturer's instructions.
T Cell Proliferation Assay
Peripheral blood mononuclear cells (PBMC) from healthy human donors were isolated by centrifugation over Ficoll-Hypaque (Sigma-Aldrich, Germany) according to manufacturer's instructions. Purified PBMC were washed twice with PBS and resuspended in RPMI1640 culture medium supplemented with 10% dialyzed heat inactivated fetal calf serum, 1.5 mM L-glutamine, 100 U penicillin/ml, and […] (all from PAN Biotech, Aidenbach, Germany). For stimulation, PBMC were seeded at 1×10^5 cells/well, activated with 2 μg/ml phytohaemagglutinin (PHA, Sigma) and incubated with the test compound. After 48 hours proliferation was measured using the BrdU based cell proliferation ELISA from Roche (Mannheim, Germany) according to the manual.
A general note: Incorporation of labelled thymidine or its analogues reports DNA synthesis.

With `CCOC(=O)c1c(-c2ccccc2F)noc1-c1cnn(-c2cccc(F)c2)c1C(F)(F)F` [Example 90, ethyl 3-(2-fluorophenyl)-5-(1-(3-fluorophenyl)-5-(trifluoromethyl)-1H-pyrazol-4-yl)isoxazole-4-carboxylate], the IC50 lay within 100 to 1000 nM.

For `O=C(O)c1c(-c2ccccc2F)noc1-c1cnn(-c2cccc(F)c2)c1C(F)(F)F` [Example 91, 3-(2-fluorophenyl)-5-(1-(3-fluorophenyl)-5-(trifluoromethyl)-1H-pyrazol-4-yl)isoxazole-4-carboxylic acid], the IC50 is 1000 to 10000 nM. Regarding `COC(=O)c1c(-c2ccccc2F)noc1-c1cnn(-c2cccc(F)c2)c1C(F)(F)F` [Example 92, methyl 3-(2-fluorophenyl)-5-(1-(3-fluorophenyl)-5-(trifluoromethyl)-1H-pyrazol-4-yl)isoxazole-4-carboxylate], the IC50 lay within 100 to 1000 nM. As to `CON(C)C(=O)c1c(-c2ccccc2F)noc1-c1cnn(-c2cccc(F)c2)c1C(F)(F)F` [Example 94, 3-(2-fluorophenyl)-5-(1-(3-fluorophenyl)-5-(trifluoromethyl)-1H-pyrazol-4-yl)-N-methoxy-N-methylisoxazole-4-carboxamide], the IC50 lay in the range of 1000 to 10000 nM. On to `COC(=O)c1c(-c2ccccc2Cl)noc1-c1cnn(-c2cccc(F)c2)c1C(F)(F)F` [Example 95, methyl 3-(2-chlorophenyl)-5-(1-(3-fluorophenyl)-5-(trifluoromethyl)-1H-pyrazol-4-yl)isoxazole-4-carboxylate], for which the IC50 is less than 10 nM. Next, `CNC(=O)c1c(-c2ccccc2Cl)noc1-c1cnn(-c2cccc(F)c2)c1C(F)(F)F` [Example 96, 3-(2-chlorophenyl)-5-(1-(3-fluorophenyl)-5-(trifluoro-methyl)-1H-pyrazol-4-yl)-N-methylisoxazole-4-carboxamide]: 100 to 1000 nM. On to `COC(=O)c1c(-c2ccc(Cl)c(Cl)c2)noc1-c1cnn(-c2cccc(F)c2)c1C(F)(F)F` [Example 97, methyl 3-(3,4-dichlorophenyl)-5-(1-(3-fluorophenyl)-5-(trifluoromethyl)-1H-pyrazol-4-yl)isoxazole-4-carboxylate], for which the IC50 lay in the range of 1000 to 10000 nM. In the case of `COCCn1ncc(-c2onc(-c3c(F)cccc3Cl)c2C(=O)OC)c1C(F)(F)F` [Example 102, methyl 3-(2-chloro-6-fluorophenyl)-5-(1-(2-methoxyethyl)-5-(trifluoromethyl)-H-pyrazol-4-yl)isoxazole-4-carboxylate], the IC50 was 100 to 1000 nM. As for `COC(=O)c1c(-c2c(F)cccc2Cl)noc1-c1cnn(C2CCS(=O)(=O)C2)c1C(F)(F)F` (stereo not drawn) [Example 103, methyl 3-(2-chloro-6-fluorophenyl)-5-(1-(3-hydrazinyltetrahydrothiophene 1,1-dioxide)-5-(trifluoromethyl)-1H-pyrazol-4-yl)isoxazole-4-carboxylate], the IC50 is 100 to 1000 nM.

With `COC(=O)c1c(-c2cccc(F)c2)noc1-c1cnn(-c2cccc(F)c2)c1C(F)(F)F` [Example 106, methyl 3-(3-fluorophenyl)-5-(1-(3-fluorophenyl)-5-(trifluoromethyl)-1H-pyrazol-4-yl)isoxazole-4-carboxylate], the IC50 lay within 1000 to 10000 nM.

For the compound `COC(=O)c1c(-c2ccc(OC)cc2)noc1-c1cnn(-c2cccc(F)c2)c1C(F)(F)F` [Example 107, methyl 5-(1-(3-fluorophenyl)-5-(trifluoromethyl)-1H-pyrazol-4-yl)-3-(4-methoxyphenyl)isoxazole-4-carboxylate], the IC50 lay in the range of 1000 to 10000 nM. Next, `COc1ccc(-c2noc(-c3cnn(-c4cccc(F)c4)c3C(F)(F)F)c2C(=O)O)cc1` [Example 108, 5-(1-(3-fluorophenyl)-5-(trifluoromethyl)-1H-pyrazol-4-yl)-3-(4-methoxyphenyl)isoxazole-4-carboxylic acid]: 1000 to 10000 nM. With `COC(=O)c1c(-c2c(Cl)cccc2Cl)noc1-c1cnn(-c2cccc(F)c2)c1C(F)(F)F` [Example 109, methyl 3-(2,6-dichlorophenyl)-5-(1-(3-fluorophenyl)-5-(trifluoromethyl)-1H-pyrazol-4-yl)isoxazole-4-carboxylate] the figure was less than 10 nM; with `CNC(=O)c1c(-c2c(Cl)cccc2Cl)noc1-c1cnn(-c2cccc(F)c2)c1C(F)(F)F` [Example 110, 3-(2,6-dichlorophenyl)-5-(1-(3-fluorophenyl)-5-(trifluoromethyl)-1H-pyrazol-4-yl)-N-methylisoxazole-4-carboxamide], 10 to 100 nM. Consider `COC(=O)c1c(-c2ccc(Cl)cc2Cl)noc1-c1cnn(-c2cccc(F)c2)c1C(F)(F)F` [Example 111, methyl 3-(2,4-dichlorophenyl)-5-(1-(3-fluorophenyl)-5-(trifluoromethyl)-1H-pyrazol-4-y)isoxazole-4-carboxylate], for which the IC50 lay in the range of 100 to 1000 nM.

Take `CCOC(=O)c1c(-c2ccc(Cl)cc2Cl)noc1-c1cnn(-c2cccc(F)c2)c1C(F)(F)F` [Example 112, ethyl 3-(2,4-dichlorophenyl)-5-(1-(3-fluorophenyl)-5-(trifluoromethyl)-1H-pyrazol-4-yl)isoxazole-4-carboxylate]: the IC50 lay in the range of 100 to 1000 nM. Turning to `COC(=O)c1c(-c2c(F)cccc2Cl)noc1-c1cnn(-c2cccc(Cl)c2)c1` [Example 115, methyl 3-(2-chloro-6-fluorophenyl)-5-(1-(3-chlorophenyl)-1H-pyrazol-4-yl)isoxazole-4-carboxylate], the IC50 fell in the range of 1000 to 10000 nM. With `CCOc1cc(-n2ncc(-c3onc(-c4c(F)cccc4Cl)c3C(=O)OC)c2C(F)(F)F)ncn1` [Example 116, methyl 3-(2-chloro-6-fluorophenyl)-5-(1-(6-ethoxypyrimidin-4-yl)-5-(trifluoromethyl)-1H-pyrazol-4-yl)isoxazole-4-carboxylate], the IC50 is 1000 to 10000 nM. Next, `Nc1c(-c2c(F)cccc2Cl)noc1-c1cnn(-c2cccc(F)c2)c1C(F)(F)F` [Example 117, 3-(2-chloro-6-fluorophenyl)-5-(1-(3-fluorophenyl)-5-(trifluoromethyl)-1H-pyrazol-4-yl)isoxazol-4-amine]: 100 to 1000 nM; `O=C(c1c(-c2c(F)cccc2Cl)noc1-c1cnn(-c2cccc(F)c2)c1C(F)(F)F)N1CCCO1` [Example 118, (3-(2-chloro-6-fluorophenyl)-5-(1-(3-fluorophenyl)-5-(trifluoromethyl)-1H-pyrazol-4-yl)isoxazol-4-yl)(isoxazolidin-2-yl)methanone]: 10 to 100 nM. In the case of `COC(=O)c1c(-c2c(F)cccc2Cl)noc1-c1cnn(-c2cc(C)nc(C)n2)c1C(F)(F)F` [Example 119, methyl 3-(2-chloro-6-fluorophenyl)-5-(1-(2,6-dimethylpyrimidin-4-yl)-5-(trifluoromethyl)-1H-pyrazol-4-yl)isoxazole-4-carboxylate], the IC50 was 100 to 1000 nM. Take `N#Cc1c(-c2c(F)cccc2Cl)noc1-c1cnn(-c2cccc(F)c2)c1C(F)(F)F` [Example 120, 3-(2-chloro-6-fluorophenyl)-5-(1-(3-fluorophenyl)-5-(trifluoromethyl)-1H-pyrazol-4-yl)isoxazole-4-carbonitrile]: the IC50 lay within 100 to 1000 nM. For `NC(=O)c1c(-c2c(F)cccc2Cl)noc1-c1cnn(-c2cccc(Cl)c2)c1C(F)(F)F` [Example 121, 3-(2-chloro-6-fluorophenyl)-5-(1-(3-chlorophenyl)-5-(trifluoromethyl)-1H-pyrazol-4-yl)isoxazole-4-carboxamide], the IC50 lay in the range of 1000 to 10000 nM. Consider `CNC(=S)c1c(-c2c(F)cccc2Cl)noc1-c1cnn(-c2cccc(F)c2)c1C(F)(F)F` [Example 122, 3-(2-chloro-6-fluorophenyl)-5-(1-(3-fluorophenyl)-5-(trifluoromethyl)-1H-pyrazol-4-yl)-N-methylisoxazole-4-carbothioamide], for which the IC50 fell in the range of 100 to 1000 nM. Take `NC(=O)c1c(-c2c(F)cccc2Cl)noc1-c1cnn(-c2cccc(F)c2)c1C(F)(F)F` [Example 124, 3-(2-chloro-6-fluorophenyl)-5-(1-(3-fluorophenyl)-5-(trifluoromethyl)-1H-pyrazol-4-yl)isoxazole-4-carboxamide]: the IC50 lay within 1000 to 10000 nM. Take `NC(=S)c1c(-c2c(F)cccc2Cl)noc1-c1cnn(-c2cccc(Cl)c2)c1C(F)(F)F` [Example 125, 3-(2-chloro-6-fluorophenyl)-5-(1-(3-chlorophenyl)-5-(trifluoromethyl)-1H-pyrazol-4-yl)isoxazole-4-carbothioamide]: the IC50 was 1000 to 10000 nM. With `CSC(=O)c1c(-c2c(F)cccc2Cl)noc1-c1cnn(-c2cccc(Cl)c2)c1C(F)(F)F` [Example 126, S-methyl 3-(2-chloro-6-fluorophenyl)-5-(1-(3-chlorophenyl)-5-(trifluoromethyl)-1H-pyrazol-4-yl)isoxazole-4-carbothioate] the figure was less than 10 nM; with `O=C(c1c(-c2c(F)cccc2Cl)noc1-c1cnn(-c2cccc(F)c2)c1C(F)(F)F)N1CCOCC1` [Example 127, (3-(2-chloro-6-fluorophenyl)-5-(1-(3-fluorophenyl)-5-(trifluoromethyl)-1H-pyrazol-4-yl)isoxazol-4-yl)(morpholino)methanone], 1000 to 10000 nM; with `CSC(=O)c1c(-c2c(F)cccc2Cl)noc1-c1cnn(-c2cccc(F)c2)c1C(F)(F)F` [Example 128, S-methyl 3-(2-chloro-6-fluorophenyl)-5-(1-(3-fluorophenyl)-5-(trifluoromethyl)-1H-pyrazol-4-yl)isoxazole-4-carbothioate], less than 10 nM. As to `CSC(=O)c1c(-c2c(F)cccc2Cl)noc1-c1cnn(-c2ccccc2F)c1C(F)(F)F` [Example 130, S-methyl 3-(2-chloro-6-fluorophenyl)-5-(1-(2-fluorophenyl)-5-(trifluoromethyl)-1H-pyrazol-4-yl)isoxazole-4-carbothioate], the IC50 is less than 10 nM.
